Experimental data as given in patent publication US12568972B2, “Pyridazinol compounds and derivatives, preparation methods, herbicidal compositions and applications thereof” (Qingdao Kingagroot Chemical Compound Co., Ltd., priority 2018, dated 2026).

Key:
Assay in all cases: Post-emergence test, weed control effect
Format in all cases: in vivo
[1] = test system: Veronica polita; details: after 3 weeks; for inhibition at 300 g/ha / inhibition at 150 g/ha: Veronica polita, 504 h, fresh weight inhibition, read-out: activity level of harmful plant destruction (growth inhibition rate), Veronica polita
In short: (§1)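 Seeds are sown in soil pots and raised in the greenhouse until the 2-3 leaf stage. Plants are then sprayed with compound dissolved in acetone with Tween-80, diluted in water and supplemented with 80% vegetable oil methyl ester synergist at 1500 g/ha, and fresh weight inhibition is rated 0-10 three weeks later.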

[2] = test system: Galium aparine; details: 504 h, after 3 weeks, fresh weight inhibition, read-out: activity level of harmful plant destruction (growth inhibition rate), Galium aparine
In short: as §1

[3] = test system: Chenopodiaceae; details: after 3 weeks; for inhibition at 300 g/ha / inhibition at 150 g/ha: 504 h, fresh weight inhibition, read-out: activity level of harmful plant destruction (growth inhibition rate), Chenopodiaceae
In short: as §1

[4] = test system: Amaranthus retroflexus; details: after 3 weeks
In short: as §1

[5] = test system: Rorippa indica; details: after 3 weeks; for inhibition at 300 g/ha / inhibition at 150 g/ha: Rorippa indica, 504 h, fresh weight inhibition, read-out: activity level of harmful plant destruction (growth inhibition rate), Rorippa indica
In short: as §1

[6] = test system: Echinochloa crus-galli; details: 504 h, after 3 weeks, fresh weight inhibition, read-out: activity level of harmful plant destruction (growth inhibition rate), Echinochloa crus-galli
In short: as §1

[7] = test system: Setaria viridis; details: 504 h, after 3 weeks, fresh weight inhibition, read-out: activity level of harmful plant destruction (growth inhibition rate), Setaria viridis
In short: as §1

| SMILES | inhibition at 300 g/ha [1] [%] | inhibition at 300 g/ha [2] [%] | inhibition at 300 g/ha [3] [%] | inhibition at 300 g/ha [5] [%] | inhibition at 300 g/ha [6] [%] | inhibition at 300 g/ha [7] [%] | weed control effect, Veronica polita (activity level) ([1]; Dose 3000 g/ha) | inhibition at 150 g/ha [1] [%] | inhibition at 150 g/ha [2] [%] | inhibition at 150 g/ha [3] [%] | weed control effect, Chenopodiaceae (activity level) ([3]; Dose 3000 g/ha) | weed control effect, Amaranthus retroflexus (activity level) ([4]; Dose 3000 g/ha) | weed control effect, Rorippa indica (activity level) ([5]; Dose 3000 g/ha) | inhibition at 150 g/ha [5] [%] | inhibition at 150 g/ha [6] [%] | inhibition at 150 g/ha [7] [%] | also measured |
| --- | --- | --- | --- | --- | --- | --- | --- | --- | --- | --- | --- | --- | --- | --- | --- | --- | --- |
| Oc1cc(C(F)(F)F)nnc1-c1ccc(F)nc1F [Compound 220] | 100 | 100 | 100 | 100 | 100 | 100 | – | – | – | – | – | – | – | – | – | – | weed control effect (activity level), Veronica polita ([1]; dose 2000 g/ha): 10; weed control effect (activity level), Chenopodiaceae ([3]; dose 2000 g/ha): 10; weed control effect (activity level), Amaranthus retroflexus ([4]; dose 2000 g/ha): 10; weed control effect (activity level), Rorippa indica ([5]; dose 2000 g/ha): 10 |
| CCCSC(=O)Oc1cc(C(F)(F)F)nnc1-c1ccc(F)cc1 [Compound 1-43] | – | – | – | – | – | – | 10 | 100 | 100 | 100 | 10 | 10 | 10 | 100 | 100 | 100 | – |
| Oc1cc(C(F)(F)F)nnc1-c1ccc(F)cc1 [Compound 32] | 100 | 100 | 100 | 100 | 100 | 100 | – | – | – | – | – | – | – | – | – | – | weed control effect (activity level), Veronica polita ([1]; dose 1000 g/ha): 10; weed control effect (activity level), Chenopodiaceae ([3]; dose 1000 g/ha): 10; weed control effect (activity level), Amaranthus retroflexus ([4]; dose 1000 g/ha): 10; weed control effect (activity level), Rorippa indica ([5]; dose 1000 g/ha): 10 |
| Oc1cc(C(F)(F)F)nnc1-c1ccc(C(F)(F)F)cc1F [Compound 51] | 90 to 100 | 80 to 90 | 100 | 100 | 60 to 70 | 90 to 100 | – | – | – | – | – | – | – | – | – | – | weed control effect (activity level), Veronica polita ([1]; dose 1000 g/ha): 10; weed control effect (activity level), Chenopodiaceae ([3]; dose 1000 g/ha): 10; weed control effect (activity level), Amaranthus retroflexus ([4]; dose 1000 g/ha): 10; weed control effect (activity level), Rorippa indica ([5]; dose 1000 g/ha): 10 |
| Oc1cc(C(F)(F)F)nnc1-c1ccc(Cl)cc1 [Compound 739] | 100 | 80 to 90 | 100 | 100 | 100 | 100 | – | – | – | – | – | – | – | – | – | – | weed control effect (activity level), Veronica polita ([1]; Dose 3000 g/ha): 10; weed control effect (activity level), Chenopodiaceae ([3]; Dose 3000 g/ha): 10; weed control effect (activity level), Amaranthus retroflexus ([4]; Dose 3000 g/ha): 10; weed control effect (activity level), Rorippa indica ([5]; Dose 3000 g/ha): 10 |
| Oc1cc(C(F)(F)F)nnc1-c1ccc(F)c(Cl)c1 [Compound 740] | 100 | 100 | 100 | 100 | 100 | 100 | – | – | – | – | – | – | – | – | – | – | weed control effect (activity level), Veronica polita ([1]; Dose 3000 g/ha): 10; weed control effect (activity level), Chenopodiaceae ([3]; Dose 3000 g/ha): 10; weed control effect (activity level), Amaranthus retroflexus ([4]; Dose 3000 g/ha): 10; weed control effect (activity level), Rorippa indica ([5]; Dose 3000 g/ha): 10 |
| Oc1cc(C(F)(F)F)nnc1-c1cccnc1 [Compound 202] | 80 to 90 | 100 | 100 | 100 | 70 to 80 | 100 | – | – | – | – | – | – | – | – | – | – | weed control effect (activity level), Veronica polita ([1]; dose 2000 g/ha): 10; weed control effect (activity level), Chenopodiaceae ([3]; dose 2000 g/ha): 10; weed control effect (activity level), Amaranthus retroflexus ([4]; dose 2000 g/ha): 10; weed control effect (activity level), Rorippa indica ([5]; dose 2000 g/ha): 10 |
| CCCCCCCCOC(=O)Oc1cc(C(F)(F)F)nnc1-c1ccc(F)cc1 [Compound 1-39] | – | – | – | – | – | – | 10 | 100 | 100 | 100 | 10 | 10 | 10 | 100 | 100 | 100 | – |
| N#Cc1ccccc1C(=O)Oc1cc(C(F)(F)F)nnc1-c1ccc(F)c(F)c1 [Compound 1-86] | – | – | – | – | – | – | 10 | 100 | 100 | 100 | 10 | 10 | 10 | 100 | 100 | 100 | – |
| COc1cc(C(F)(F)F)nnc1-c1ccccc1 [D, reference compound] | 0 | 0 | 0 to 20 | 0 to 20 | 0 | 0 | – | – | – | – | – | – | – | – | – | – | – |
